{"source": "patent US20250296960A1", "about": "“PEPTIDE COMPOSITIONS AND METHODS OF USE THEREOF” (priority 2022, published 2025)", "key": {"[1]": {"assay_type": "in vitro ADME", "settings": "pH 7.8", "procedure": "(§1) For the stability against trypsin, the test samples were prepared by mixing stock solutions of peptide and trypsin dissolved in 50 mM PBS (pH 7.8) containing 0.02% PS80 in a weight ratio of 10:1. The test samples were incubated at 37° C. for 180 min. The sampling from test samples was proceeded at the predetermined time points (10, 30, 60, 90, 120, and 180 min) and stopped by 10% TFA solution.\n(§2) Analytical HPLC was performed to determine the remaining amount on an ACQUITY Premier system (Waters, USA) with an ACQUITY CSH C18 column (Waters, USA) at 35° C. using 0.1% TFA in water and acetonitrile. The remaining amount was determined as a percentage of the peak area at the sampling time point relative to the peak area of the initial sample."}, "trypsin": {"test_system": "trypsin", "assay_type": "in vitro ADME", "procedure": "as §1, §2"}, "human GCGR": {"biological_target": "T1, human GCGR (Homo sapiens, UniProt P47871)", "T1 construct": "host or cells: CHO-K1", "T1 sequence (P47871 26-477)": "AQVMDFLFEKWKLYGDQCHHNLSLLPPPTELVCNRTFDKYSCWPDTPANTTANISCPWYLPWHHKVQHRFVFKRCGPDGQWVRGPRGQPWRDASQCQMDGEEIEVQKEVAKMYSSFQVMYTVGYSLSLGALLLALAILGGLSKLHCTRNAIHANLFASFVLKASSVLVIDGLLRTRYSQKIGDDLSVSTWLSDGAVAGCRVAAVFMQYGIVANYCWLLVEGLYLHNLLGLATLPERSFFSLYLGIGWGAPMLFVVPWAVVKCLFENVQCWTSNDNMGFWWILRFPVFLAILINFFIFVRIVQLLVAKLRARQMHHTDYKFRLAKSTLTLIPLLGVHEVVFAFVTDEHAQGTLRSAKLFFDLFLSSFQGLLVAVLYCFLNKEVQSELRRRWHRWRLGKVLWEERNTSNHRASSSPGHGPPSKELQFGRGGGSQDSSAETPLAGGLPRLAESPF", "test": "cAMP assay (HitHunter cAMP) in GCGR-expressing CHO-K1 cells (GCGR+ cells)", "assay_type": "cell-based", "settings": "Table 36", "method_in_brief": "(§3)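 CHO-K1 cells expressing each receptor were plated overnight, then treated with peptide in cAMP assay buffer for 30 min at 37 °C. cAMP was detected by antibody plus detection solution (1 h) and Solution A (3 h), both at room temperature in the dark. Luminescence was the read-out.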"}, "[2]": {"test": "In vitro enzymatic stability against FaSSIF/P (pancreatin in FaSSIF, pH 6.5)", "assay_type": "in vitro ADME", "settings": "simulated gi fluid, pH 6.5, Half-life (min), FaSSIF/P"}, "human GLP-1R": {"biological_target": "T2, human GLP-1R (Homo sapiens, UniProt P43220)", "T2 construct": "host or cells: CHO-K1", "T2 sequence (P43220 24-463)": "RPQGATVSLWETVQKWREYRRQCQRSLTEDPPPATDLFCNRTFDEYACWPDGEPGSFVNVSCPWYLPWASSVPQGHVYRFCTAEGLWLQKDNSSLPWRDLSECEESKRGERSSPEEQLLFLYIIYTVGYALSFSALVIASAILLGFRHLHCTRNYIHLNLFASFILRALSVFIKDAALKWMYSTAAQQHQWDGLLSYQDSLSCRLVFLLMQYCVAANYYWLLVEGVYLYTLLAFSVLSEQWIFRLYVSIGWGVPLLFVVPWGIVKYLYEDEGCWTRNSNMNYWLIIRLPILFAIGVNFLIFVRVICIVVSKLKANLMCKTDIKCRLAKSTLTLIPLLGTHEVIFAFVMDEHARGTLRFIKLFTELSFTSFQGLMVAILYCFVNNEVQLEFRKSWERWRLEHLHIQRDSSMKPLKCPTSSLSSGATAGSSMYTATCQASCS", "test": "cAMP assay (HitHunter cAMP) in GLP-1R-expressing CHO-K1 cells (GLP-1R+ cells)", "assay_type": "cell-based", "method_in_brief": "as §3"}, "human GIPR": {"biological_target": "T3, human GIPR (Homo sapiens, UniProt P48546)", "T3 construct": "host or cells: CHO-K1", "T3 sequence (P48546 22-466)": "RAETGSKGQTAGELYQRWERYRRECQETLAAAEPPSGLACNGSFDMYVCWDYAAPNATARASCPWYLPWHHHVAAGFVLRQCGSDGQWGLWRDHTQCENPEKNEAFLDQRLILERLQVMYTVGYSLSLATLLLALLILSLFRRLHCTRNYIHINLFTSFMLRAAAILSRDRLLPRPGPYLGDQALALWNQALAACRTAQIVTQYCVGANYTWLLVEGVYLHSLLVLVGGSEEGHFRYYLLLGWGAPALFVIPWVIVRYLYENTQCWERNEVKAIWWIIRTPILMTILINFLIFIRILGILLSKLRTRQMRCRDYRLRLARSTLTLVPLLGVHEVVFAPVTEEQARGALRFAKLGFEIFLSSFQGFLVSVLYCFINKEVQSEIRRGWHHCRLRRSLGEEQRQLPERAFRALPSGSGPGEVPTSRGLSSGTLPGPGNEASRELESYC", "test": "cAMP assay (HitHunter cAMP) in GIPR-expressing CHO-K1 cells (GIPR+ cells)", "assay_type": "cell-based", "settings": "Table 36", "method_in_brief": "as §3"}}, "note": "Read-outs that look alike come from different tables or passages of the source. Numbered stars: 1 amine (or outer) side, 2 acyl side, 3 side chain; on linkers, the order of the positions; unused ones are H or OH. Square brackets hold non-standard residues; d marks the D form. Side chains are listed from the residue outwards. Peptide text beside a SMILES is read from it. * marks the point of attachment. C18 diacid = O=C(O)CCCCCCCCCCCCCCCCC(=O)*; γGlu = O=C(O)[C@H](CCC(=O)[*:2])N[*:1]; AEEA = NCCOCCOCC(=O)O; Aib = CC(C)(N)C(=O)O"}
{"smiles": "CSCC[C@H](NC(=O)[C@H](Cc1ccc(O)cc1)NC(=O)[C@H](CC(=O)O)NC(=O)[C@H](CC(C)C)NC(=O)[C@H](CC(C)C)NC(=O)[C@H](CCCCNC(=O)COCCOCCNC(=O)COCCOCCNC(=O)CC[C@H](NC(=O)CCCCCCCCCCCCCCCCC(=O)O)C(=O)O)NC(=O)[C@H](CO)NC(=O)[C@H](Cc1ccc(O)cc1)NC(=O)[C@H](CC(=O)O)NC(=O)[C@H](CO)NC(=O)[C@@H](NC(=O)[C@H](Cc1ccccc1)NC(=O)[C@@H](NC(=O)CNC(=O)[C@H](CCC(N)=O)NC(=O)C(C)(C)NC(=O)[C@@H](N)Cc1ccc(O)cc1)[C@@H](C)O)[C@@H](C)O)C(=O)N[C@@H](CCSC)C(=O)N[C@@H](CCC(N)=O)C(=O)N[C@@H](Cc1c[nH]cn1)C(=O)N[C@@H](CC(=O)O)C(=O)N[C@@H](Cc1ccccc1)C(=O)N[C@H](C(=O)N[C@@H](CCC(N)=O)C(=O)N[C@@H](Cc1c[nH]c2ccccc12)C(=O)N[C@@H](CC(C)C)C(=O)N[C@@H](CC(C)C)C(=O)N[C@@H](CCC(=O)O)C(=O)NCC(=O)NCC(=O)N1CCC[C@H]1C(=O)N[C@@H](CO)C(=O)N[C@@H](CO)C(=O)NCC(=O)N[C@@H](C)C(=O)N1CCC[C@H]1C(=O)N1CCC[C@H]1C(=O)N1CCC[C@H]1C(=O)N[C@@H](CO)C(N)=O)C(C)C", "note": "[compound 99] (H-Y[Aib]QGTFTSDYSK([AEEA-AEEA-γGlu-C18 diacid])LLDYMMQHDFVQWLLEGGPSSGAPPPS-NH2; N-terminus assumed)", "values": [{"measurement": "half-life", "setting": "[1]", "result": "> 434", "unit": "min"}, {"measurement": "stability against trypsin compared with SEQ ID NO. 77, in words", "setting": "trypsin", "result": "increased half-lives"}, {"measurement": "Ratio vs. GLP-1R, GCGR", "setting": "human GCGR", "result": 80}, {"measurement": "Relative % to native ligand, GCGR", "setting": "human GCGR", "result": 28, "unit": "%"}, {"measurement": "half-life", "setting": "[2]", "result": 37.9, "unit": "min"}, {"measurement": "activity on GLP-1R compared to SEQ ID NO. 77, in words", "setting": "human GLP-1R; Example 13", "result": "slightly decreased"}, {"measurement": "Ratio vs. GLP-1R, GLP-1R", "setting": "human GLP-1R; Table 36", "result": 100}, {"measurement": "Relative % to native ligand, GLP-1R", "setting": "human GLP-1R; Table 36", "result": 35, "unit": "%"}, {"measurement": "Ratio vs. GLP-1R, GIPR", "setting": "human GIPR", "result": 3237}, {"measurement": "Relative % to native ligand, GIPR", "setting": "human GIPR", "result": 1132, "unit": "%"}]}
